ChEMBL document CHEMBL5576076, “Bioisosteric heterocyclic analogues of natural bioactive flavonoids by scaffold-hopping approaches: State-of-the-art and perspectives in medicinal chemistry” (Bioorg Med Chem, 2024)
Values after ≈ are worked out from the molar mass of the structure shown.

Experiments:
[1] = Inhibition of human LOX
Homo sapiens = species: Homo sapiens; assay: Inhibition of human Lipoxygenase at 100 uM relative to control
[2] = Inhibition of Influenza A virus H1N1 neuraminidase
Influenza A virus = assay: Antiviral activity against Influenza A virus H1N1 infected in dog MDCK cells assessed as inhibition in virus-induced cytopathic effect incubated for 48 hrs by SRB assay; type: functional, organism-based
MCF7 [3] = assay: cells; conditions: Homo sapiens, MCF7, 72 h
Tubulin (Homo sapiens) = Tubulin (Homo sapiens) (UniProt P68371+Q9H4B7+P0DPH7+P68366+Q13509+Q71U36+P04350+Q3ZCM7+P07437+P68363+Q9BQE3+Q6PEY2+Q13885+Q9BVA1+Q9BUF5); assay: Inhibition of [3H]-colchicine binding to tubulin (unknown origin) at 5 uM relative to control; type: protein-complex assay
[4] = system: Panel NCI-60 (60 carcinoma cell lines); assay: Antiproliferative activity against human Panel NCI-60 (60 carcinoma cell lines) assessed as reduction in cell viability; type: functional, cell-based
[5] = target: Mitogen-activated protein kinase; ERK1/ERK2 (Homo sapiens, UniProt P27361+P28482); assay: Inhibition of RAF1- induced activation of MEK (unknown origin) signalling pathway assessed as reduction in ERK1/2 phosphorylation; type: protein assay
WiDr = assay: Antiproliferative activity against human WiDr cells assessed as reduction in cell viability incubated for 48 hrs by MTT assay; type: functional, cell-based
HT-1080 = assay: cells; conditions: Homo sapiens, HT-1080, 48 h
Description: Antiproliferative activity against human HT-1080 cells assessed as reduction in cell viability incubated for 48 hrs by MTT assay

Tubulin = assay: Inhibition of tubulin polymerization (unknown origin); type: protein-complex assay, Homo sapiens
MCF7 [6] = assay: Antiproliferative activity against human MCF7 cells assessed as reduction in cell growth incubated for 48 hrs by MTT assay; type: functional, cell-based; conditions: MCF7, 48 h
OE19 = assay: Antiproliferative activity against human OE19 cells assessed as reduction in cell growth incubated for 72 hrs by MTT assay; type: functional, cell-based; conditions: OE19, 72 h
A549 [7] = assay: Antiproliferative activity against human A549 cells assessed as reduction in cell growth incubated for 48 hrs by MTT assay; type: functional, cell-based; conditions: A549, 48 h
HepG2 [8] = assay: Antiproliferative activity against human HepG2 cells assessed as reduction in cell viability incubated for 72 hrs by MTT assay; type: functional, cell-based; conditions: HepG2, 72 h
Jurkat = assay: Antiproliferative activity against human Jurkat cells assessed as reduction in cell growth incubated for 72 hrs by MTT assay; type: functional, cell-based
HT-29 = assay: Antiproliferative activity against human HT-29 cells assessed as reduction in cell growth incubated for 72 hrs by MTT assay; type: functional, cell-based; conditions: HT-29, 72 h
MDA-MB-468 = assay: Antiproliferative activity against human MDA-MB-468 cells assessed as reduction in cell growth incubated for 72 hrs by MTT assay; type: functional, cell-based; conditions: MDA-MB-468, 72 h
PT-45 = assay: Antiproliferative activity against human PT-45 cells assessed as reduction in cell growth incubated for 72 hrs by MTT assay; type: functional, cell-based; conditions: PT-45, 72 h
A-375 = assay: Antiproliferative activity against human A-375 cells assessed as reduction in cell growth incubated for 72 hrs by MTT assay; type: functional, cell-based; conditions: A-375, 72 h
NCI-H295R = assay: Antiproliferative activity against human NCI-H295R cells assessed as reduction in cell viability incubated for 72 hrs by MTT assay; type: functional, cell-based
HeLa = assay: Antiproliferative activity against human HeLa cells assessed as reduction in cell viability incubated for 72 hrs by MTT assay; type: functional, cell-based
A549 [9] = assay: Antiproliferative activity against human A549 cells assessed as reduction in cell growth incubated for 72 hrs by MTT assay; type: functional, cell-based; conditions: A549, 72 h
ARO = assay: Antiproliferative activity against human ARO cells assessed as reduction in cell growth incubated for 48 hrs by MTT assay; type: functional, cell-based
OVCAR-3 = assay: Antiproliferative activity against human OVCAR-3 cells assessed as reduction in cell viability incubated for 72 hrs by MTT assay; type: functional, cell-based; conditions: OVCAR-3, 72 h
OE33 = assay: Antiproliferative activity against human OE33 cells assessed as reduction in cell growth incubated for 72 hrs by MTT assay; type: functional, cell-based; conditions: OE33, 72 h
[10] = target: Dual specificity mitogen-activated protein kinase kinase 1 (Homo sapiens, UniProt Q02750); assay: Inhibition of RAF1- induced activation of MEK (unknown origin) signalling pathway assessed as reduction in MEK1 phosphorylation
DU-145 [11] = assay: Antitumor activity against human DU-145 cells xenografted in Balb/c nude mouse model assessed as tumor growth inhibition at 5 mg/kg, ip administered once daily for 16 days relative to control; type: functional; set-up: scale not given: the % may be the effect or the level left; conditions: time 16 day
DU-145 [12] = assay: Antiproliferative activity against human DU-145 cells assessed as reduction in cell viability measured for 48 hrs by MTT assay; type: functional, cell-based; conditions: DU-145, 48 h
MV4-11 = assay: Antiproliferative activity against human MV4-11 cells assessed as reduction in cell growth incubated for 48 hrs by MTT assay; type: functional, cell-based; conditions: MV4-11, 48 h
HL-60 = assay: Antiproliferative activity against human HL-60 cells assessed as reduction in cell growth incubated for 48 hrs by MTT assay; type: functional, cell-based; conditions: HL-60, 48 h
KB = assay: Cytotoxicity against human KB cells assessed as reduction in cell growth incubated for 48 hrs by MTT assay; type: functional, cell-based
HepG2 [13] = assay: Cytotoxicity against human HepG2 cells assessed as reduction in cell growth incubated for 48 hrs by MTT assay; type: functional, cell-based; conditions: HepG2, 48 h
[14] = target: Epidermal growth factor receptor (Homo sapiens, UniProt P00533); assay: Inhibition of EGFR (unknown origin)
[15] = target: Quinolone resistance protein NorA (Staphylococcus aureus) (UniProt P0A0J7); assay: Inhibition of NorA efflux pump in Staphylococcus aureus SA1199B overexpressing NorA gene assessed as inhibition of EtBr efflux at 50 uM incubated for 20 mins by fluorometric assay
Staphylococcus aureus = assay: Antibacterial activity against Methicillin-resistant Staphylococcus aureus assessed as reduction in bacterial growth; type: functional
Cytochrome P450 1A2 = Cytochrome P450 1A2 (Homo sapiens, UniProt P05177); assay: Inhibition of CYP1A2 (unknown origin); type: ADME
[16] = system: Human immunodeficiency virus 1; assay: Antiviral activity against HIV1 infected in H9 cells assessed as reduction in viral replication; type: functional; conditions: Human immunodeficiency virus 1, H9; read-out: ED50 (the source's name)

Sequence of Epidermal growth factor receptor (P00533 whole entry): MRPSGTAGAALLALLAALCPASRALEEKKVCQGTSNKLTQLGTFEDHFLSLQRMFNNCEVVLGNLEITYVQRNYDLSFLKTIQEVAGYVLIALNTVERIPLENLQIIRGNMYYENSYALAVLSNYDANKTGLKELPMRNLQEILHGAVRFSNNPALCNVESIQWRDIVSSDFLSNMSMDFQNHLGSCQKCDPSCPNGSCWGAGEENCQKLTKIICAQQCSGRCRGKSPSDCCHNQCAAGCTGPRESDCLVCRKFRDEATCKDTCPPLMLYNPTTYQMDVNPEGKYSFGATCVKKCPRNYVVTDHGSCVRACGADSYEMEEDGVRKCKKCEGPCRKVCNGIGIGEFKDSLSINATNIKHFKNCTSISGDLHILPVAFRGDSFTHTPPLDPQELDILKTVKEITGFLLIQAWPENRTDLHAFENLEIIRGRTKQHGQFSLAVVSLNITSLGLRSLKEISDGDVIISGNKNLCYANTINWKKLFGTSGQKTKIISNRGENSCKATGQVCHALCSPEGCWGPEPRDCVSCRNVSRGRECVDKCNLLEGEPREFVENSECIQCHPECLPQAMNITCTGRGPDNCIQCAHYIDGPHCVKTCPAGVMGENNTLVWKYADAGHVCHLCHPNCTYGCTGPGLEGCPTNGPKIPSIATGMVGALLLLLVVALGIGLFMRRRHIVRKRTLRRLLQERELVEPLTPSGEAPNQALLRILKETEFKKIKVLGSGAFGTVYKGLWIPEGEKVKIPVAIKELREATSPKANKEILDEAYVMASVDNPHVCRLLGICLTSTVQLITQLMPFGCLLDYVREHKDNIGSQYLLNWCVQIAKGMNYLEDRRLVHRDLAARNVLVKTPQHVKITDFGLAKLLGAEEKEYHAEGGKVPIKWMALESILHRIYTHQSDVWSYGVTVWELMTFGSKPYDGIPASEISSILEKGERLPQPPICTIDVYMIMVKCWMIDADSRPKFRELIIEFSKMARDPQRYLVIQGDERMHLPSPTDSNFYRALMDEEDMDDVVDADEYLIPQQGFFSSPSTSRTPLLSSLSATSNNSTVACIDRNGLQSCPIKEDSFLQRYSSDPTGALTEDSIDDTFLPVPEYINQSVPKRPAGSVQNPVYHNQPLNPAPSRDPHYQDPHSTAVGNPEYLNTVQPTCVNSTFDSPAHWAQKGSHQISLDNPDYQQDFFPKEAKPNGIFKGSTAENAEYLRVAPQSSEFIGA
Sequence of Cytochrome P450 1A2 (P05177 whole entry): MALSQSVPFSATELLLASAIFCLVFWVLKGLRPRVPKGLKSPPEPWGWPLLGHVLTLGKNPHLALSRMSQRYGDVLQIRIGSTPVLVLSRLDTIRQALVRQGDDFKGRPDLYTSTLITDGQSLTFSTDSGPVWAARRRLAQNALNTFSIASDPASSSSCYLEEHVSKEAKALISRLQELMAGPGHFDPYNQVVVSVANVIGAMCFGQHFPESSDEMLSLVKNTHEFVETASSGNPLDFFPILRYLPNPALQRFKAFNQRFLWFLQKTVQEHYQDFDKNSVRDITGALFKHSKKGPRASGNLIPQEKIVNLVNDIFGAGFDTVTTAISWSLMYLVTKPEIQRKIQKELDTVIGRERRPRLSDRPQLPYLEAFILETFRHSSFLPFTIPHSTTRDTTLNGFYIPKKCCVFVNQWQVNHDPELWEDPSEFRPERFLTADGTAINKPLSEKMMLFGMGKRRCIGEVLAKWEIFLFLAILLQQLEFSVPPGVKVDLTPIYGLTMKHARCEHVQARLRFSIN
Sequence of Dual specificity mitogen-activated protein kinase kinase 1 (Q02750 whole entry): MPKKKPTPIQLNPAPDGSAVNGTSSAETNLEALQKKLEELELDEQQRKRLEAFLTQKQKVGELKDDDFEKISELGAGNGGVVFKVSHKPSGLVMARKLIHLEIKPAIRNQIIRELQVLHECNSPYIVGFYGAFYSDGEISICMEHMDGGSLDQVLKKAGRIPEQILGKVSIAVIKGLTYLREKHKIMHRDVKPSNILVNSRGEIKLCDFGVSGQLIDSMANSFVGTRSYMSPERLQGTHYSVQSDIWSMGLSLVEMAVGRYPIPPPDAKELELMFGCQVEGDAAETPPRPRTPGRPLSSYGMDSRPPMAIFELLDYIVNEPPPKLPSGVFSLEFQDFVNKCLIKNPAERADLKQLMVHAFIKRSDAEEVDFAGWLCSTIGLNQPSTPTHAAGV

Oc1ccc2nc(-c3ccccc3O)ccc2c1
IC50 [1]: 6.5 µM
inhibition (Homo sapiens): > 80%

O=c1c(O)c(-c2ccc(O)c(O)c2)oc2cc(O)cc(O)c12 [QUERCETIN]
IC50 [2]: 8.7 µM
EC50 (Influenza A virus): 0.56 µM

COc1ccccc1-c1cc(=O)c2ccccc2[nH]1
IC50 [2]: 1.3 µM
EC50 (Influenza A virus): 4.96 µM

COc1ccc(-c2oc3cc(O)c(OC)c(O)c3c(=O)c2OC)cc1O [CENTAUREIDIN]
IC50 (MCF7 [3]): 0.24 µM
inhibition (Tubulin (Homo sapiens)): 35%

COc1cc(O)c2c(O)cc(-c3cccc(F)c3)nc2c1
IC50 [4]: 14.5 µM

COc1cccc(-c2cc(=O)c3ccccc3o2)c1N
IC50 [5]: 2.95 µM
IC50 (WiDr): 10 µM
IC50 (HT-1080): 8.6 µM

COc1ccc(-c2cc(=O)c3cc(OC)c(OC)c(OC)c3o2)cc1
IC50 (MCF7 [3]): 1.7 µM
inhibition (Tubulin (Homo sapiens)): 43%
IC50 (Tubulin): 3 µM

CCOC(=O)CCn1ccc2c3c(=O)cc(-c4ccccc4)[nH]c3ccc21
IC50 (MCF7 [6]): 0.005 µM
IC50 (OE19): 0.005 µM
IC50 (A549 [7]): 0.005 µM
IC50 (HepG2 [8]): 0.005 µM
IC50 (Jurkat): 0.005 µM
inhibition (Tubulin (Homo sapiens)): 75%
IC50 (HT-29): 0.005 µM
IC50 (MDA-MB-468): 0.005 µM
IC50 (PT-45): 0.005 µM
IC50 (A-375): 0.005 µM
IC50 (Tubulin): 0.75 µM
IC50 (NCI-H295R): 0.005 µM
IC50 (HeLa): 0.005 µM
IC50 (A549 [9]): 0.005 µM
IC50 (ARO): 0.005 µM
IC50 (OVCAR-3): 0.005 µM
IC50 (OE33): 0.005 µM

CCOC(=O)C1=C[C@@H](OC(CC)CC)[C@H](NC(C)=O)[C@@H](N)C1 [OSELTAMIVIR]
IC50 [2]: 1.9 µM
EC50 (Influenza A virus): 12.7 µM

COc1cccc(-c2cc(=O)c3ccccc3s2)c1N
IC50 [10]: 4.35 µM
IC50 [5]: 13.8 µM
IC50 (WiDr): 30.5 µM
IC50 (HT-1080): 29.5 µM

O=C1C[C@H](c2cccc(Br)c2)Nc2ccccc21
Activity (DU-145 [11]): 60%
IC50 (DU-145 [12]): 0.4 µM

Oc1ccc(-c2ccc3ccccc3n2)c2ccccc12
IC50 [1]: 6.5 µM
inhibition (Homo sapiens): > 80%

COc1ccc(-c2oc3c(OC)c(OC)c(OC)c(O)c3c(=O)c2OC)cc1O
IC50 (MCF7 [3]): 0.13 µM
inhibition (Tubulin (Homo sapiens)): 59%
IC50 (Tubulin): 0.8 µM

COc1cc2c(cc1CC=C(C)C)C(=O)NC(c1ccc(O)cc1)N2 (configuration not stated)
IC50 (MV4-11): 0.5 µM
IC50 (HL-60): 0.25 µM

COc1cccc(-c2c[nH]c3c(F)cccc3c2=O)c1
IC50 (KB): 0.03 µM
IC50 (HepG2 [13]): 0.01 µM

COc1cc(O)c2c(O)c(-c3cccc(Cl)c3)cnc2c1
IC50 [14]: 0.04 µM

O=c1cc(-c2ccccc2)[nH]c2ccc3c(ccn3CC3CC3)c12
IC50 (MCF7 [6]): 0.02 µM
IC50 (OE19): 0.02 µM
IC50 (Jurkat): 0.02 µM
inhibition (Tubulin (Homo sapiens)): 83%
IC50 (HT-29): 0.02 µM
IC50 (MDA-MB-468): 0.02 µM
IC50 (A-375): 0.02 µM
IC50 (Tubulin): 0.9 µM
IC50 (NCI-H295R): 0.02 µM
IC50 (ARO): 0.02 µM
IC50 (OVCAR-3): 0.02 µM

CCCOc1ccc(-c2cc(=O)c3ccccc3o2)cc1
inhibition [15]: 33.9%
MIC (Staphylococcus aureus): 0.4 µg/mL (≈ 1.43 µM)

COc1ccc(-c2cc(=O)c3cc(OC)c4cccc(OC)c4c3[nH]2)cc1
IC50 (Cytochrome P450 1A2): 0.0041 µM

COc1cccc(-c2c[nH]c3c(F)cc(F)cc3c2=O)c1
IC50 (KB): 0.06 µM
IC50 (HepG2 [13]): 0.05 µM

CC(=O)Oc1cc2sc(-c3ccccc3)cc(=O)c2cc1OC(C)=O
EC50 [16]: 0.65 µg/mL (≈ 1.83 µM)
